Measured values as given in patent publication US20240424053A1, “METHODS AND COMPOSITIONS FOR PROVIDING MYOCARDIAL PROTECTION AND TREATING MYOCARDIAL STRESS AND FIBROSIS” (Tufts Medical Center, Inc., priority 2021, published 2024).
Entries after “also recorded” stand apart in the source; their conditions may differ. Where a SMILES comes first, the peptide text is derived from it. The star is where a group is joined. Palmitoyl = CCCCCCCCCCCCCCCC(=O)*

Assays:
Type in all cases: in vivo
PAR1 [1] = molecular target: T1, PAR1 (Homo sapiens, UniProt P25116); test: TRIP-PCI phase 2 study in patients with CAD/ACS undergoing cardiac catheterization; details: 9 patients with heart failure, EFs 30-53%
T1 construct: delivered intravenously in 100 patients with coronary artery disease (CAD) and acute coronary syndrome (ACS) undergoing cardiac catheterization; endogenous in cells; host or cells: patients of the TRIP-PCI trial (platelets ex vivo; whole body in vivo)
T1 sequence (P25116 22-425): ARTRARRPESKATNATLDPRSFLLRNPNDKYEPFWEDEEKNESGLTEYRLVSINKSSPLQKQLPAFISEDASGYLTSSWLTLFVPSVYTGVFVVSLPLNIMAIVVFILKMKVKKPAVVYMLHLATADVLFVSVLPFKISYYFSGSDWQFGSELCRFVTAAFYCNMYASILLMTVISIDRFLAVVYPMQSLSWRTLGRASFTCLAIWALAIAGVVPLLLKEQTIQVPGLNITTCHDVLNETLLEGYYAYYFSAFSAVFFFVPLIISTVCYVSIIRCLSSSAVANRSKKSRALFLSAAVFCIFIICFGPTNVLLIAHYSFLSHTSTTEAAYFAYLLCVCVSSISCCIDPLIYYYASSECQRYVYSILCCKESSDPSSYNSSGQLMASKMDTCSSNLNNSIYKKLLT
Experimental: TRIP-PCI was a multicenter, randomized, double-blind placebo-controlled phase 2 study that examined the safety, tolerability, and efficacy of PZ-128 at two dose levels (0.3 and 0.5 mg/kg, versus placebo, 1:1:1), delivered intravenously in 100 patients with coronary artery disease (CAD) and acute coronary syndrome (ACS) undergoing cardiac catheterization (Kuliopulos et al., Arterioscler. Thromb. Vasc. Biol 40(12):2990-3003, 2020). PAR1 inhibitors are intended to suppress thrombin-induced platelet activation to reduce damage during percutaneous coronary intervention (PCI) and ACS, potentially reducing the risk of myocardial infarction, stroke, and serious adverse events (Mackman et al., Nat. Rev. Drug Discov. 19(5):333-352, 2020). PZ-128 clinical trial participants received a single 2-h intravenous infusion of PZ-128 or placebo started just prior to catheterization along with standard antiplatelet therapy. […] The majority of events occurred within the first 24 h, with a nonsignificant decrease in hazard ratio (HR=0.81) of a MACE/myonecrosis event in the PZ-128 treated groups versus placebo. […]

PAR1 [2] = molecular target: T2, PAR1 (Mus musculus, UniProt P30558); test: echocardiography after 3 days reperfusion following 30 min myocardial ischemia in mice; details: 10 mg/kg sc once daily, n=4
T2 construct: endogenous in cells; host or cells: male C57BL/6N mice, in vivo
T2 sequence (P30558 22-430): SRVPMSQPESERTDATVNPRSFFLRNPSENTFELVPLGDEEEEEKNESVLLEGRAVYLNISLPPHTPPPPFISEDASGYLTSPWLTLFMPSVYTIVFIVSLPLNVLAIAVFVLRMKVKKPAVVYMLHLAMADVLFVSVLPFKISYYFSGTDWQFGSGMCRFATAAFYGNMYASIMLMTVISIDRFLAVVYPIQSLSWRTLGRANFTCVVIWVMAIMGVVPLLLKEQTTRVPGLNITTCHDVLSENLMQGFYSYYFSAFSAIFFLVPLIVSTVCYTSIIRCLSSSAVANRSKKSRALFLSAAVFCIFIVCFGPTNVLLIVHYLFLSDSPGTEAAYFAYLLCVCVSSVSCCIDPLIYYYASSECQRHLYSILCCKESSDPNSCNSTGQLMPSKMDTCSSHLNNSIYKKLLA
Experimental: A role of PAR1 in directly mediating cardiac ischemic myonecrosis—independent of established platelet-dependent effects (Strande et al., Basic Res. Cardiol. 102(4):350-358, 2007)—was also examined. […] Mice (n=7) were treated with vehicle or 10 mg/kg PZ-128 (subcutaneous; sc) just prior to ischemic injury. As shown in FIG. 1a-d, PZ-128-treated mice had 51-62% reductions in mean cardiac Infarct Area (p<0.01), Area At Risk (p<0.01), and Total Ischemic Area (p<0.0001) compared to vehicle-treated mice. […] Using echocardiography after 3 days of reperfusion, there was a significant increase in left ventricular mass (p<0.05) in vehicle compared to PZ-128 treated cohorts, with no difference in left ventricular mass between baseline and 3 days in the PZ-128 cohort (FIG. 2). […] Previous pharmacokinetic studies of subcutaneously administered PZ-128 in mice were the basis of this 10 mg/kg dose in mice (Cisowski et al., Am. J. Pathol. 179(1):513-523, 2011), selected to match the 0.3-0.5 mg/kg doses administered in humans.
A subset of male C57BL6N mice from each group subjected to 30 min left coronary artery ischemia (FIGS. 1A-1E) were reperfused for 3 days (n=4 vehicle, n=4 10 mg/kg PZ-128 sc once daily).

PAR1 [3] = molecular target: T1, PAR1; test: NT-proBNP plasma levels in heart failure subset of TRIP-PCI; details: 24 hours after single dose (0.3 or 0.5 mg/kg combined), HF patients n=5, P=0.02
Experimental: Data was analyzed by 2-sided paired T-tests. Normal levels of NT-proBNP ≤125 pg/mL.
The TRIP-PCI (Thrombin Receptor Inhibitory Pepducin in PCI) Phase 2 trial (Kuliopulos et al., Arterioscler. Thromb. Vasc. Biol. 40(12):2990-3003, 2020), which enrolled a subset of patients with HF, was conducted to assess the safety, target engagement, and efficacy of PZ-128 in patients undergoing cardiac catheterization with intent to perform percutaneous coronary intervention (PCI). As explained above, in this randomized, double-blind, placebo-controlled, phase 2 trial, 100 patients were randomly assigned (2:1) to receive PZ-128 (0.3 mg/kg or 0.5 mg/kg), or placebo in a two-hour infusion initiated just prior to the start of cardiac catheterization. […]
In the BNP multinational study of 1568 patients presenting with dyspnea to the emergency department, BNP and NT-proBNP were the single most accurate predictors of diagnosis and severity of ADHF, and are used as a well-validated surrogate clinical efficacy endpoint in human trials (Ibrahim et al., Circ. Res. 123(5):614-629, 2018; Ibrahim et al., Circ. Heart Fail. 9(9), 2016). NT-proBNP levels were measured at baseline and 24 hours after the PZ-128 or placebo infusion was initiated and the cardiac catheterization procedure completed in the subset of patients with heart failure. […]

For `CCCCCCCCCCCCCCCC(=O)N[C@@H](CCCCN)C(=O)N[C@@H](CCCCN)C(=O)N[C@@H](CO)C(=O)N[C@@H](CCCNC(=N)N)C(=O)N[C@@H](C)C(=O)N[C@@H](CC(C)C)C(=O)N[C@@H](Cc1ccccc1)C(N)=O` [PZ-128, Palmitate-KKSRALF-NH2] (Palmitoyl-KKSRALF-NH2), the “tolerability in heart failure patients” value (PAR1 [1]) was “tolerated well”, the “ejection fraction at 3 days compared to baseline” value (PAR1 [2]) was “no significant reductions; also recorded: maintained baseline” and the “fractional shortening at 3 days compared to baseline” value (PAR1 [2]) was “no significant reductions; also recorded: maintained baseline”. For the same compound, the “left ventricular mass, baseline vs 3 days” value (PAR1 [2]) was “no difference; also recorded: no significant differences” and the “change in NT-proBNP levels” value (PAR1 [3]) was “significant mean drop”.
